Results reported in ChEMBL document CHEMBL3507680, “University of Dundee, Gates Library screen for HepG2 cell viability”.

Test: Human HepG2 cell viability assay in 384 well format
Assay type: toxicity, cell-based
Parameters: dose 125 nL, time 70.5 hour; cytotoxicity at 70.5 h: concentration not given beside the values
Settings: HepG2 cells, read-out: Inhibition

Compound | cytotoxicity at 70.5 h [%]
c1ccc(CN2C[C@@H]3CC[C@H](C2)N(Cc2nnc(C4CC4)o2)C3)cc1 | -8.78
CCN(C(=O)CS(=O)(=O)c1cc(OC)c(OC)cc1C)C1CC1 | -8.45
Cc1cccc(OCCNC(=O)CN2CCc3cncnc3C2)c1 | -7.19
CN1CCOC(CNCC(=O)NCCCc2ccccc2)C1 (configuration not stated) | 4.87
Cc1noc(Cl)c1CCC(=O)N1CCC(Nc2cccnn2)CC1 | -0.162
CCC(=O)NC1CCN(c2cccc(OC(F)(F)F)c2)C1=O (configuration not stated) | -2.63
O=S(=O)(NCCc1c[nH]c2ccc(F)cc12)C1CCOCC1 | -16
Cc1cc(C)nc(NCCC(=O)NCCn2ccc3ccccc32)n1 | 5.63
Cc1ccnc(N2CCN(C[C@]3(O)CCCN4CCCC[C@@H]43)CC2)c1 | 1.52
CCOCC(=O)N1CCCn2c(CN3CCOCC3)nnc2C1 | 2.86
C=C(C)CNC(=O)C1CCC(=O)N(C2CCCC2)C1 (configuration not stated) | -2.49
CN1CCCC2(CCN(S(=O)(=O)c3c(Cl)nc4sccn34)C2)C1=O (configuration not stated) | -5.17
Cc1cnn(CC2CN(CCCS(=O)(=O)N(C)C)CCO2)c1 (configuration not stated) | -10.7
Cc1nccc(CNS(=O)(=O)N(C)Cc2ccc(Cl)cc2)n1 | 8.78
O=C(NCc1nn(-c2ccccc2)c2c1CCC2)C1CC1 | -3.11
NC(=O)c1cncc(N2CCN(Cc3ccc(F)cc3Cl)CC2)n1 | -3.73
CC(C)(C)CN(CCC#N)C(=O)c1cccc(CN2CCCC2)c1 | 4.22
CC(C)(O)CCc1cccc(C(=O)NCCC2=CSC3=NCCCN23)c1 | -0.369
CNc1cc(C2CCCN2C(=O)c2ccc(=O)[nH]n2)ccn1 (configuration not stated) | -2.78
Cc1nc(CN2CCCC(N(C)CCc3ccncc3)C2)no1 (configuration not stated) | 17.8
c1ccc2c(c1)CC(n1ccnc1-c1cc3n(n1)CCNC3)CO2 (configuration not stated) | 1.41
Cc1cnn(CCCNCc2csc(COc3ccccc3)n2)c1 | -3.68
Cc1ccc(NCC2(O)CCNCC2)cc1C | -1.72

Compound | cytotoxicity at 70.5 h [%]
O=C1CC(c2ccccc2)c2snc(C(=O)O)c2N1 (configuration not stated) | 24.7
O=C(Cc1cccnc1)N1C[C@@H]2CC[C@H](C1)N(Cc1ccccc1)C2=O | -7.37
CCn1cnnc1CNC(=O)N(C)Cc1ccc(F)c(F)c1 | -5.87
CN1C(=O)CCCC12CCCN(C(=O)c1cc(F)cc(F)c1)C2 (configuration not stated) | -9.55
NC(=O)c1cn2cc(-c3ccccc3Cl)n(CC3CC3)c(=O)c2n1 | -9.1
CN1CCOCC2(CCCN(C(=O)c3ccc(-n4cccc4)cc3)C2)C1 (configuration not stated) | 9.26
Cc1cccc2c1ccn2CC(=O)NC[C@@H]1CCCN2CCCC[C@H]12 | -6.63
CCN1CCCC1CNC(=O)c1cc(COc2ccccc2F)[nH]n1 (configuration not stated) | -4.57
Cc1cnc(CN(C)C2CCN(Cc3ccccc3C#N)C2)o1 (configuration not stated) | -5.36
CSCC[C@@H](CO)n1ccnc1-c1ccncc1 | -10.3
CCc1ccc(CNC(=O)NCc2nnc3n2CCC3)s1 | 17.1
CC(NC(=O)Cn1ccc(=O)n(C)c1=O)c1ccccc1F (configuration not stated) | -5.75
NC(=O)c1ccc(=O)n(Cc2cc(Br)ccc2Cl)n1 | -5.48
CC(C)NC(=O)CCNC(=O)Nc1cnn(-c2ccccc2Cl)c1 | -6.67
CCC(CNC(=O)C1CC1)(OC)c1ccccc1 (configuration not stated) | 8.11
CCn1cnnc1C1CCN(C(=O)c2ccc(OC(C)C)nc2)CC1 | 5.53
CCN(C(=O)CNC1CCc2ncnn2C1)C1=CCCCC1 (configuration not stated) | 4.5
CC(Cn1cccn1)NC(=O)NCCc1ccc(Cl)s1 (configuration not stated) | -5.79
CC(NC(=O)Cc1ccon1)c1ccc(OCC2CC2)c(F)c1 (configuration not stated) | -7.52
OCCN(Cc1ccccc1)Cc1nc(-c2ccc3c(c2)OCO3)no1 | -9.5
Cc1nn(C)c(N2CCOCC2)c1CNCc1ccc(N(C)C)nc1 | 15.7
O=S(=O)(c1ccc(-c2nc3c([nH]2)CCNC3)cc1)N1CCCC1 | -11.8
O=C(NCc1cc(O)ncn1)C1CCOc2ccccc2C1 (configuration not stated) | -7.76

Compound | cytotoxicity at 70.5 h [%]
CNc1nc(CNC(=O)Nc2ccc(SC)c(F)c2)cs1 | -1.49
O=C(NCC(F)F)c1cc(-c2ccccc2)nc2ncnn12 | -1.07
O=C(Cn1ccc2sccc2c1=O)NCc1ccc(F)cc1 | -9.4
O=C(Nc1ccccc1)N1C(CO)[C@]2(O)CC[C@H]1CC2 (some centres not stated) | 15
CNc1ncc2c(n1)CN(C1CC(C)(C)NC(C)(C)C1)C2=O | -12.6
CSC1=Nc2c(cnn2-c2ccc(C)cc2)C2=NCCCN12 | -10.1
Cc1nnc(NC(=O)CN2CCCC2c2noc(C(C)C)n2)s1 (configuration not stated) | -8.98
COCCNc1ccccc1CNC(=O)NCc1ccc(C)s1 | -6.41
Cc1nc2ccccc2n(Cc2nnnn2C2CC2)c1=O | -5.13
Cc1cccn2cc(C(=O)N3CCCN(CC4CC4)C(C(C)C)C3)nc12 (configuration not stated) | -8.2
Cn1cc(C(=O)N[C@@H]2CN(Cc3cccnc3)[C@@H]3CCCO[C@@H]32)cn1 | -4.29
c1cncc(CN2C[C@H]3CCC[C@@H](CNc4cnccn4)[C@H]3C2)c1 | -4.05
Cc1ccc(NC(=O)C2CSCN2C(=O)c2cnsn2)c(C)c1 (configuration not stated) | -6.91
CC(C)CC(C)NCc1cccnc1N1CCN(c2ccccn2)CC1 (configuration not stated) | -12.3
CN1CC[C@H]2OCC[C@@H](C(=O)NCc3ccco3)[C@@H]2C1 | 9.03
CN(c1ncnc2c1CCC2)C1CCCN(c2cccnn2)C1 (configuration not stated) | 1.68
CNC(=O)COc1ccc(CNc2cncc(-n3cccn3)n2)cc1 | -16.8
CC(C(=O)NCc1cn2cc(Br)ccc2n1)S(C)(=O)=O (configuration not stated) | -5.34
CN1CCCCc2c1nc1c(c2N)CCC1.O=C(O)c1cc([N+](=O)[O-])ccc1Cl | -11.7
CC(=O)N(Cc1ncc(C(C)C)o1)C1CCN(CCn2cccn2)C1 (configuration not stated) | 4.58
CCN(CC)c1ccc(C(=O)N2CCC(c3nc(C)no3)CC2)cn1 | -7.84
CN1CCN(c2cc(CNCc3cccc4c3OCO4)ccn2)CC1 | -8.22
CN(C)C(=O)c1ccc(C2CCCN2C(=O)c2cccc3c2OCC3)s1 (configuration not stated) | -6.24

Compound | cytotoxicity at 70.5 h [%]
COC(CNC(=O)C1CC1)c1ccc(C)s1 (configuration not stated) | 19.1
O=C(NCc1ccco1)[C@H]1CC[C@@H]2[C@@H](CCN2C2CCC2)O1 | -15.1
O=C1COc2ccc(S(=O)(=O)N3CCOCC3)c3c2N1CCC3 | 35.1
COc1cccc(CN2CC(O)CN(S(C)(=O)=O)CC2=O)c1OC (configuration not stated) | 4.13
COCCN1C(=O)CC(N2CCN(c3ccccc3)CC2)C1=O (configuration not stated) | -3.99
CCc1[nH]ncc1C(=O)N1CCCC(n2ccnc2C(C)C)C1 (configuration not stated) | 1.64
Cc1c[nH]nc1C1CN(c2ncccn2)CCO1 (configuration not stated) | -3.49
Cc1c(C(=O)NS(=O)(=O)c2ccsc2)cnn1CC(C)C | 4.87
O=S(=O)(Cc1ccccc1)N1CCCn2cnc(CN3CCCC3)c2C1 | 0.898
Cc1cc(C(=O)N2CCc3ncc(CN4CCCC4)n3CC2)no1 | -11
O=C(NCCc1cccs1)[C@H]1CO[C@H]2CCN(C3CCC3)C[C@H]2C1 | -0.468
Cc1ccccc1N1CCCN(C(=O)CCCS(N)(=O)=O)CC1 | 15.2
COc1ccc(CC2CCCN2CCCC#N)cc1 (configuration not stated) | -4.33
O=C(CCn1ccnc1)N1CC[C@@H](c2ccc3ccccc3c2)[C@H](O)C1 | 4.4
CC(C)CCOc1ccc(C(C)NC(=O)CSCC(N)=O)cc1 (configuration not stated) | -8.07
Cc1nc(C2CCCN2Cc2cc(Cl)c3c(c2)OCCO3)no1 (configuration not stated) | 16.9
CC(C)NC(=O)C1CN(C(=O)Nc2ccccc2)CC12CCOCC2 (configuration not stated) | 22
CN(Cc1ccc(N2CCOCC2)cc1)C(=O)Cn1cccnc1=O | -3.91
O=C(CCCn1cncn1)N1CCCCC1c1nccs1 (configuration not stated) | -4.13
Cc1cc(CN2CCc3nn(C)c(=O)cc3C2)on1 | 3.7
CN(C)Cc1cc(=O)n2c(n1)CN(CC1CC1)CCC2 | -6.12
CNS(=O)(=O)c1ccsc1C(=O)OC | -5.92
CCn1cc(CN2CCC(O)(Cn3nc(C)ccc3=O)CC2)cn1 | -4.18

Compound | cytotoxicity at 70.5 h [%]
CCCS(=O)(=O)NCc1cccnc1Oc1ccc(C)nc1 | -0.632
N[C@H]1CN(C(=O)Cc2ccc(Cl)c(Cl)c2)C[C@@H]1C1CC1 | 13.6
COc1cc2ccccc2cc1C(=O)N1CCCC(c2nncn2C)C1 (configuration not stated) | -11.4
COc1ccc(-c2c(C)nn3c(=N)c(C#N)n[nH]c23)cc1 | -12.3
CCN(C)C(=O)c1cccc(S(=O)(=O)NCCc2nc(C)cc(=O)[nH]2)c1 | -22.4
O=C(C1CC=CC1)N1CCC2(CCN(Cc3ccccn3)C2=O)C1 (configuration not stated) | 5.7
CCc1nc(Cn2c(=O)n(CC)c3ccccc32)no1 | -7.55
O=C(NCc1ccco1)[C@H]1C[C@@H]2CCN(c3nncs3)C[C@H]2O1 | -9.42
Cc1sc2ncnc(N3CCC(N(C)Cc4cnn(C)c4)CC3)c2c1C | 0.374
CCCn1[nH]cc/c1=N\C(=O)CN1CCc2c(nc(C3CC3)n2C)C1 | -9.16
Cc1c(CNCc2nn(-c3ccccc3)c3c2CCC3)cc(C#N)n1C | 4.96
Cc1nc2n(n1)CC(NCc1cc(Cl)c3c(c1)OCCCO3)CC2 (configuration not stated) | -6.52
COc1ncccc1-c1ncccc1NC(=O)C(C)C | -6.31
CC(C)CNC(=O)C1CC(=O)N(c2n[nH]c3ccccc23)C1 (configuration not stated) | -5.36
O=c1[nH]c(-c2cccnc2)nc2c1CCN(S(=O)(=O)N1CCCC1)C2 | -12
CCN1CCN(C(=O)CCC2CCN(C(C)CCC(=O)OC)CC2)CC1 (configuration not stated) | 8.92
CC(C#N)CSc1ccccc1NCC(=O)NCc1ccccc1 (configuration not stated) | 4.47
CC(C(=O)NC1CC1)S(=O)(=O)Cc1csc(-c2cccs2)n1 (configuration not stated) | 11
O=C(Cc1ccc2c(c1)OCO2)N1CCCN(c2nccs2)CC1 | -8.59
NC(=O)CN1CCC(C(=O)N2CCCC(OCc3cccnc3)C2)CC1 (configuration not stated) | -11
